Results: the supplement of paper PMC10307832

Key:
Assay in all cases: relative viability (nuclei count vs DMSO), 5 days (fraction); higher = more cells survive
[1] = compound: O=S(=O)(c1ccccc1)N(CC(F)(F)F)c1ccc(C(O)(C(F)(F)F)C(F)(F)F)cc1 + CCNC(=O)c1noc(-c2cc(C(C)C)c(O)cc2O)c1-c1ccc(CN2CCOCC2)cc1 [Luminespib] (partner 0.01 µM)
Summary of the method: (§1)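 The day after seeding in 1536-well plates, lung cancer cell lines were treated by pin tool with a single drug, or with a fixed anchor-drug dose together with five library-drug doses (not always all listed) in √10 steps. After 5 days, a combined fix-and-stain solution (final 0.05% Triton X-100, 1% formaldehyde, 1 ug/ml Hoechst) was added. Nuclei counted on 4× images gave relative viability as treated counts over vehicle counts, reported as the median of duplicate plates.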

RO-3306 + Vorinostat = compound: C1=CC2=C(C=CC(=C2)C=C3C(=O)NC(=NCC4=CC=CS4)S3)N=C1 [RO-3306] + O=C(CCCCCCC(=O)Nc1ccccc1)NO [Vorinostat] (partner 1 µM)
Summary of the method: as §1

RO-3306 + AZD7762 = compound: C1=CC2=C(C=CC(=C2)C=C3C(=O)NC(=NCC4=CC=CS4)S3)N=C1 [RO-3306] + NC(=O)Nc1cc(-c2cccc(F)c2)sc1C(=O)N[C@H]1CCCNC1 [AZD7762] (partner 0.2 µM)
Summary of the method: as §1

RO-3306 + Alpelisib = compound: C1=CC2=C(C=CC(=C2)C=C3C(=O)NC(=NCC4=CC=CS4)S3)N=C1 [RO-3306] + Cc1nc(NC(=O)N2CCC[C@H]2C(N)=O)sc1-c1ccnc(C(C)(C)C(F)(F)F)c1 [Alpelisib] (partner 2 µM)
Summary of the method: as §1

| Cell Line | relative viability ([1]; first compound 0.8 µM) | relative viability ([1]; first compound 2.53 µM) | relative viability ([1]; first compound 8 µM) | relative viability (RO-3306 + Vorinostat; first compound 0.01 µM) | relative viability (RO-3306 + Vorinostat; first compound 0.03162 µM) | relative viability (RO-3306 + Vorinostat; first compound 0.1 µM) | relative viability (RO-3306 + Vorinostat; first compound 0.3162 µM) | relative viability (RO-3306 + Vorinostat; first compound 1 µM) | relative viability (RO-3306 + AZD7762; first compound 0.01 µM) | relative viability (RO-3306 + AZD7762; first compound 0.03162 µM) | relative viability (RO-3306 + AZD7762; first compound 0.1 µM) | relative viability (RO-3306 + AZD7762; first compound 0.3162 µM) | relative viability (RO-3306 + AZD7762; first compound 1 µM) | relative viability (RO-3306 + Alpelisib; first compound 0.01 µM) | relative viability (RO-3306 + Alpelisib; first compound 0.03162 µM) | relative viability (RO-3306 + Alpelisib; first compound 0.1 µM) | relative viability (RO-3306 + Alpelisib; first compound 0.3162 µM) | relative viability (RO-3306 + Alpelisib; first compound 1 µM) |
| --- | --- | --- | --- | --- | --- | --- | --- | --- | --- | --- | --- | --- | --- | --- | --- | --- | --- | --- |
| NCI-H596 | 1.13 | 0.69 | 0.923 | 0.589 | 0.512 | 0.533 | 0.726 | 0.713 | 1.17 | 1.01 | 1.03 | 1.1 | 0.917 | 0.443 | 0.48 | 0.49 | 0.511 | 0.432 |
| NCI-H650 | 1.01 | 0.854 | 0.853 | 0.406 | 0.376 | 0.41 | 0.428 | 0.415 | 0.874 | 0.911 | 0.943 | 1.05 | 0.952 | 0.872 | 0.981 | 1.03 | 1.1 | 1.05 |
| EMC-BAC-2 | 1.28 | 1.18 | 1.17 | 0.417 | 0.354 | 0.351 | 0.534 | 0.161 | 1.1 | 1.04 | 1.14 | 1.14 | 1 | 0.763 | 0.63 | 0.717 | 0.774 | 0.726 |
| NCI-H2085 | 0.46 | 0.371 | 0.428 | 0.83 | 0.733 | 0.775 | 0.781 | 0.8 | 1.04 | 0.95 | 0.93 | 0.921 | 1.07 | 1.07 | 0.926 | 0.922 | 0.968 | 0.952 |
| RERF-LC-KJ | 1.29 | 1.17 | 1.17 | 0.725 | 0.64 | 0.67 | 0.687 | 0.63 | 1.02 | 0.671 | 1.06 | 1.11 | 1.24 | 1.01 | 0.708 | 0.706 | 0.836 | 0.768 |
| NCI-H3122 | 0.0579 | 0.0537 | 0.115 | 1.07 | 0.825 | 0.993 | 1.19 | 1.06 | 1.16 | 1.06 | 0.973 | 1.06 | 1.1 | 0.635 | 0.738 | 0.832 | 0.762 | 0.788 |
| CAL-12T | 0.38 | 0.251 | 0.354 | 1.08 | 0.66 | 0.647 | 0.809 | 0.694 | 0.718 | 0.565 | 0.575 | 0.658 | 0.747 | 1.38 | 1.26 | 1.17 | 1.19 | 1.37 |
| NCI-H1944 | 0.946 | 0.786 | 0.68 | 0.595 | 0.566 | 0.588 | 0.562 | 0.509 | 0.606 | 0.571 | 0.508 | 0.45 | 0.46 | 0.789 | 0.739 | 0.816 | 0.934 | 0.829 |
| PC-3 [JPC-3] | 0.654 | 0.717 | 0.679 | 0.649 | 0.629 | 0.648 | 0.735 | 0.524 | 0.688 | 0.673 | 0.769 | 0.687 | 0.681 | 1.1 | 1 | 1.02 | 0.98 | 0.98 |
| NCI-H2126 | 0.994 | 0.83 | 0.831 | 0.747 | 0.679 | 0.812 | 0.879 | 0.733 | 1.01 | 0.976 | 1.02 | 0.993 | 1.13 | 0.717 | 0.698 | 0.752 | 0.786 | 0.8 |
| LK-2 | 0.175 | 0.174 | 0.227 | 0.293 | 0.248 | 0.324 | 0.275 | 0.295 | 0.459 | 0.354 | 0.425 | 0.448 | 0.472 | 1.27 | 0.897 | 1.02 | 1.31 | 1.03 |
| NCI-H460 | 0.034 | 0.0266 | 0.0324 | 1.19 | 0.517 | 0.677 | 0.976 | 0.448 | 0.797 | 0.675 | 0.682 | 0.737 | 0.785 | 0.571 |  | 0.503 | 0.656 | 0.426 |
| HCC-827 | 0.439 | 0.589 | 0.573 | 0.946 | 0.7 | 0.881 | 0.789 | 0.859 | 0.234 | 0.18 | 0.216 | 0.197 | 0.196 | 1.04 | 1.05 | 0.921 | 0.946 | 1.06 |
| NCI-H838 | 0.24 | 0.257 | 0.299 | 0.726 | 0.694 | 0.722 | 0.738 | 0.674 | 1.03 | 0.908 | 0.975 | 0.972 | 0.931 | 0.992 | 0.972 | 1.01 | 1.04 | 0.999 |
| NCI-H2347 | 0.512 | 0.41 | 0.286 | 0.539 | 0.541 | 0.51 | 0.532 | 0.701 | 1.13 | 0.663 | 0.796 | 0.766 | 0.724 | 1.13 | 0.759 | 1.01 | 1.05 | 0.951 |
| HARA | 0.652 | 0.263 | 0.414 | 0.493 | 0.404 | 0.527 | 0.638 | 0.445 | 0.443 |  | 0.237 | 0.297 | 0.421 | 1.05 | 0.754 | 0.953 | 0.973 | 0.795 |
| NCI-H1355 | 0.781 | 0.756 | 0.759 | 0.694 | 0.538 | 0.644 | 0.6 | 0.591 | 0.792 | 0.762 | 0.677 | 0.694 | 0.863 | 1 | 0.709 | 0.872 | 0.969 | 0.822 |
| NCI-H1395 | 0.75 | 0.701 | 0.714 | 0.738 | 0.649 | 0.579 | 0.689 | 0.629 | 0.44 | 0.42 | 0.374 | 0.374 | 0.427 | 1.12 | 1.22 | 1.1 | 1.03 | 1.02 |
| NCI-H1437 | 1.12 | 0.903 | 0.831 | 0.848 | 0.782 | 0.807 | 0.751 | 0.688 | 1.2 | 1.08 | 1.11 | 1.15 | 0.882 | 1.05 | 0.868 | 0.999 | 1 | 0.929 |
| NCI-H358 | 0.195 | 0.332 | 0.352 | 0.821 | 0.603 | 0.596 | 0.638 | 0.524 | 0.486 | 0.493 | 0.49 | 0.52 | 0.578 | 0.868 | 0.711 | 0.759 | 0.809 | 0.556 |
| HOP-62 | 0.903 | 0.907 | 0.862 | 0.615 | 0.44 | 0.486 | 0.611 | 0.638 | 0.695 | 0.469 | 0.466 | 0.567 | 0.451 | 1.02 | 0.992 | 0.933 | 1.04 | 0.986 |
| EKVX | 0.84 | 0.576 | 0.73 | 0.75 |  | 0.739 | 0.663 | 0.712 | 0.727 | 0.538 | 0.677 | 0.692 | 0.603 | 0.958 | 0.833 | 0.841 | 1.02 | 0.83 |
| NCI-H1666 | 0.831 | 0.84 | 0.889 | 0.803 | 0.952 | 1.04 | 1.05 | 0.972 | 0.787 | 0.878 | 0.858 | 0.88 | 0.799 | 1.02 | 0.743 | 0.891 | 0.973 | 0.802 |
| NCI-H2170 | 0.855 | 0.474 | 0.489 | 0.901 | 0.568 | 0.886 | 0.842 | 0.856 | 1.11 | 0.865 | 0.938 | 0.939 | 0.907 | 0.772 | 0.687 | 0.765 | 0.825 | 0.77 |
| 201T | 1.05 | 0.887 | 0.975 | 1.03 | 0.974 | 0.959 | 1.03 | 1.02 | 0.617 | 0.651 | 0.59 | 0.511 | 0.595 | 1.03 | 1.01 | 1.05 | 0.973 | 1.04 |
| NCI-H1755 | 0.505 | 0.418 | 0.458 | 0.881 | 0.856 | 0.771 | 0.745 | 0.706 | 0.609 | 0.473 | 0.458 | 0.439 | 0.496 | 1.02 | 0.772 | 0.958 | 0.904 | 0.859 |
| NCI-H1793 | 0.162 | 0.149 | 0.172 | 0.985 |  | 0.58 | 0.701 | 0.721 | 0.643 |  | 0.484 | 0.277 | 0.532 | 0.686 | 0.577 | 0.739 | 0.59 | 0.565 |
| NCI-H441 | 0.317 | 0.37 | 0.372 | 0.888 | 0.495 | 0.837 | 1.23 | 0.638 | 1.02 | 0.782 | 1.21 | 0.948 | 1.03 | 1 | 0.556 | 0.563 | 0.657 | 0.66 |
| EPLC-272H | 0.166 | 0.497 | 0.265 | 0.243 | 0.479 | 0.386 | 0.382 | 0.198 | 0.152 |  | 0.138 | 0.188 | 0.199 | 0.927 | 0.79 | 0.909 | 0.829 | 0.972 |
| PC-14 | 0.153 | 0.132 | 0.19 | 1.03 | 0.682 | 0.72 | 0.796 | 0.682 | 0.28 | 0.32 | 0.285 | 0.426 | 0.251 | 0.981 |  | 0.939 | 0.953 | 0.996 |
